Test results taken from paper PMC10400579, “FDW028, a novel FUT8 inhibitor, impels lysosomal proteolysis of B7-H3 via chaperone-mediated autophagy pathway and exhibits potent efficacy against metastatic colorectal cancer” (Cell Death & Disease, 2023).

Legend:
[1] = target: T1, Fucosyltransferase 8 (FUT8) (Homo sapiens, UniProt Q9BYC5); experiment: grating-coupled interferometry (GCI) with immobilized FUT8; supported by thermal shift of FUT8-Flag from SW480 cells (Tm +[…] °C at […]); format: binding
T1 sequence (Q9BYC5 31-575): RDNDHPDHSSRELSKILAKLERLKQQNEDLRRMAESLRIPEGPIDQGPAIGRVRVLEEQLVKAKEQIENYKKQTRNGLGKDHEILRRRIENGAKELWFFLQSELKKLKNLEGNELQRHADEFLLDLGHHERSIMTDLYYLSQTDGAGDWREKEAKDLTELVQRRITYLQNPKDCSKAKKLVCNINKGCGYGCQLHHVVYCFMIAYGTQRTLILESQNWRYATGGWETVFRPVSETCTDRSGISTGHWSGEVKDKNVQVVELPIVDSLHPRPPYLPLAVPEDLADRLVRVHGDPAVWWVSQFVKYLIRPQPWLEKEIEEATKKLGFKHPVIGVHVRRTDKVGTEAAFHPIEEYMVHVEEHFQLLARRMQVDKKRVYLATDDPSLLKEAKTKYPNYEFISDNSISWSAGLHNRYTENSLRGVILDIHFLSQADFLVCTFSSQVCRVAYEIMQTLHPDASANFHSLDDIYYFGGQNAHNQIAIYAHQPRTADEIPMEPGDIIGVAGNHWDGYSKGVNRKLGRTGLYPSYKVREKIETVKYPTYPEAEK

[2] = target: T2, Fucosyltransferase 8 (FUT8) (Homo sapiens, UniProt Q9BYC5); experiment: streptavidin pulldown from SW480 lysate with […] probe, western blot and LC-MS/MS; format: cell-based
T2 construct: FUT8-Flag
T2 sequence (Q9BYC5 1-575): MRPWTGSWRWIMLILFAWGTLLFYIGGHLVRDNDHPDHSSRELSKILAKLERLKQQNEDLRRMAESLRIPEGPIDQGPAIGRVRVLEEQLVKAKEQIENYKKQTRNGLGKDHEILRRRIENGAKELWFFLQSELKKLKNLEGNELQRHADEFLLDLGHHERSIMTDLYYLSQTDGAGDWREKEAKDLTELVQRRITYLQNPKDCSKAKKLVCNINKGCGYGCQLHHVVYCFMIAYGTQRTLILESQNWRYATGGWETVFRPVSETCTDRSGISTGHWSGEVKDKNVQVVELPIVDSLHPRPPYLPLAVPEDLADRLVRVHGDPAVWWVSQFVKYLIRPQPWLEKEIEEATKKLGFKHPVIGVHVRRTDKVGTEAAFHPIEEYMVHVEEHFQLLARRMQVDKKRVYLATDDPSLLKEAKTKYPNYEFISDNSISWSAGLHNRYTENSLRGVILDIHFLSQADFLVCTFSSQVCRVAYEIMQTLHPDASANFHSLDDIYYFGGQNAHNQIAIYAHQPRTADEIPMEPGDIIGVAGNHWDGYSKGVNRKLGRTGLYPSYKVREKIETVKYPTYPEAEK

Kd [1] [µM]	SMILES	streptavidin pulldown from SW480 lysate with 0.2 mM probe, western blot and LC-M [2]
5.49	CCc1ccc(CNc2nc3nc(CNCc4ccccc4)cc(O)n3n2)cc1 [D2-1c, FDW028]	–
–	CCc1ccc(CNc2nc3nc(CN(Cc4ccccc4)C(=O)CCOCCOCCOCCOCCOCCOCCNC(=O)CCCC[C@@H]4SC[C@@H]5NC(=O)N[C@@H]54)cc(O)n3n2)cc1 [FDW028-PEG6-biotin]	much more FUT8-Flag was pulled down by FDW028-PEG6-biotin than the control
